Test results taken from patent US8609690B2, “Aryl- and heteroarylcarbonyl derivatives of substituted nortropanes, medicaments containing such compounds and their use” (Boehringer Ingelheim International GmbH, priority 2008, dated 2013).

Target: T1, 11β-HSD 1 (Homo sapiens, UniProt P28845)
T1 construct: detecting cortisol generated from cortisterone by human liver microsomes; from tissue; host or cells: human liver microsomes
Assay: In vitro inhibition of 11β-HSD 1, HTRF detection of cortisol generated by human liver microsomes
Format: biochemical
Conditions: 1 μM test compound, 100% indicates no inhibition, zero or below zero indicates complete inhibition (relative to carbenoxolone)
Outline: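 Human liver microsomes with test compound were incubated 1 h at 37 °C in Tris buffer, pH 6.0, with 200 μM NADPH and 80 nM cortisone. Cortisol formed was detected by competitive HTRF immunoassay (665/615 nm ratio) and calibrated against a cortisol standard curve. Values are activities at 1 μM compound relative to carbenoxolone, where 100% indicates no inhibition.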

T1 sequence (P28845 whole entry): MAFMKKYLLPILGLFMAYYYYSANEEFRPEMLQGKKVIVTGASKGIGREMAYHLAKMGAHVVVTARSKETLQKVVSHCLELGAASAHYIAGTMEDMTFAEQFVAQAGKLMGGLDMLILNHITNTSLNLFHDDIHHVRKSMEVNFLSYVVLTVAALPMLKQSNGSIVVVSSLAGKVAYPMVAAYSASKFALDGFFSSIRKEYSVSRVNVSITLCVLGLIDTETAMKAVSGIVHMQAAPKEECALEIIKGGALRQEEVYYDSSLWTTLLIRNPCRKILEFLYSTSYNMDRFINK

| SMILES | Inhibitory activity on 11β-HSD 1, % CTL (1 µM) | Inhibitory activity on 11β-HSD 1, % CTL |
| --- | --- | --- |
| O=C(c1ccccn1)N1[C@@H]2CC[C@H]1C[C@@H](c1ccc(F)cc1)C2 [Example 98, endo-[3-(4-Fluoro-phenyl)-8-aza-bicyclo[3.2.1]oct-8-yl]-pyridin-2-yl-methanone] | 74 % CTL |  |
| Cc1cccc(C(=O)N2[C@@H]3CC[C@H]2C[C@@H](c2ccc(F)cc2)C3)c1 [Example 99, endo-[3-(4-Fluoro-phenyl)-8-aza-bicyclo[3.2.1]oct-8-yl]-m-tolyl-methanone] |  | −39 % CTL |
| Cc1ccccc1C(=O)N1[C@@H]2CC[C@H]1C[C@@H](c1ccc(F)cc1)C2 [Example 100, endo-[3-(4-Fluoro-phenyl)-8-aza-bicyclo[3.2.1]oct-8-yl]-o-tolyl-methanone] |  | 61 % CTL |
| Cc1ccc(C(=O)N2[C@@H]3CC[C@H]2C[C@@H](c2ccc(F)cc2)C3)cc1 [Example 101, endo-[3-(4-Fluoro-phenyl)-8-aza-bicyclo[3.2.1]oct-8-yl]-p-tolyl-methanone] |  | 4 % CTL |
| O=C(c1ccc(O)nc1)N1[C@@H]2CC[C@H]1C[C@@H](c1ccc(F)cc1)C2 [Example 102, endo-[3-(4-Fluoro-phenyl)-8-aza-bicyclo[3.2.1]oct-8-yl]-(6-hydroxy-pyridin-3-yl)-methanone] |  | 47 % CTL |
| O=C(c1ccc(F)cc1)N1[C@@H]2CC[C@H]1C[C@@H](c1ccc(F)cc1)C2 [Example 103, endo-(4-Fluoro-phenyl)-[3-(4-fluoro-phenyl)-8-aza-bicyclo[3.2.1]oct-8-yl]-methanone] |  | 32 % CTL |
| O=C(c1cccc(F)c1)N1[C@@H]2CC[C@H]1C[C@@H](c1ccc(F)cc1)C2 [Example 104, endo-(3-Fluoro-phenyl)-[3-(4-fluoro-phenyl)-8-aza-bicyclo[3.2.1]oct-8-yl]-methanone] |  | 43 % CTL |
| N#Cc1ccc(C(=O)N2[C@@H]3CC[C@H]2C[C@@H](c2ccc(F)cc2)C3)cc1 [Example 105, endo-4-[3-(4-Fluoro-phenyl)-8-aza-bicyclo[3.2.1]octane-8-carbonyl]-benzonitrile] |  | 58 % CTL |
| N#Cc1cccc(C(=O)N2[C@@H]3CC[C@H]2C[C@@H](c2ccc(F)cc2)C3)c1 [Example 106, endo-3-[3-(4-Fluoro-phenyl)-8-aza-bicyclo[3.2.1]octane-8-carbonyl]-benzonitrile] |  | 75 % CTL |
| Cc1ccc(C(=O)N2[C@@H]3CC[C@H]2C[C@@H](c2ccc(F)cc2)C3)cc1C [Example 107, endo-(3,4-Dimethyl-phenyl)-[3-(4-fluoro-phenyl)-8-aza-bicyclo[3.2.1]oct-8-yl]-methanone] |  | −38 % CTL |
| COc1ccc(C(=O)N2[C@@H]3CC[C@H]2C[C@@H](c2ccc(F)cc2)C3)cc1 [Example 108, endo-[3-(4-Fluoro-phenyl)-8-aza-bicyclo[3.2.1]oct-8-yl]-(4-methoxy-phenyl)-methanone] |  | 1 % CTL |
| COc1cccc(C(=O)N2[C@@H]3CC[C@H]2C[C@@H](c2ccc(F)cc2)C3)c1 [Example 109, endo-[3-(4-Fluoro-phenyl)-8-aza-bicyclo[3.2.1]oct-8-yl]-(3-methoxy-phenyl)-methanone] |  | −33 % CTL |
| COc1ccccc1C(=O)N1[C@@H]2CC[C@H]1C[C@@H](c1ccc(F)cc1)C2 [Example 110, endo-[3-(4-Fluoro-phenyl)-8-aza-bicyclo[3.2.1]oct-8-yl]-(2-methoxy-phenyl)-methanone] |  | 87 % CTL |
| O=C(c1ccccc1Cl)N1[C@@H]2CC[C@H]1C[C@@H](c1ccc(F)cc1)C2 [Example 111, endo-(2-Chloro-phenyl)-[3-(4-fluoro-phenyl)-8-aza-bicyclo[3.2.1]oct-8-yl]-methanone] |  | 61 % CTL |
| O=C(c1ccc(Cl)cc1)N1[C@@H]2CC[C@H]1C[C@@H](c1ccc(F)cc1)C2 [Example 112, endo-(4-Chloro-phenyl)-[3-(4-fluoro-phenyl)-8-aza-bicyclo[3.2.1]oct-8-yl]-methanone] |  | 40 % CTL |
